“And” between values parts separate entries of the source, which are not always exact repeats. Identical values can stand only once. Like-named read-outs stand apart in the source and are kept apart here.
Experiments:
[1] = tested on: HLM; assay: Intrinsic clearance, substrate depletion approach; type: in vitro ADME, human; settings: substrate depletion
Experimental: (§1) The generic conditions were previously described by Masimirembwa and co‐workers. ^24 , ^25 Each reaction mixture consisted of substrate incubated with appropriate enzyme, substrate, and NADPH in potassium phosphate buffer pH 7.4 in a final volume of 200 µL. The substrate was diluted to 40% ACN so that the percent organic component in the final solution was maintained at 1%. The reactions were quenched with 3 volumes of stop solution containing ACN and 0.8% formic acid at 0, 5, 10, 20, 30, 40, and 60 minutes. This was followed by centrifugation at 4500 g for 20 minutes. An aliquot (50 µL) supernatant was collected and diluted (1:1) in water prior to LC‐MS/MS analysis.
(§2) Each reaction was monitored over 7 time points.
(§3) The well‐stirred model was used to estimate the hepatic clearance (CLH) due to metabolism.

[2] = Intrinsic clearance, substrate depletion approach; type: in vitro ADME, human; settings: human, human liver microsomes, pH 7.4; HLM, 1 µmol/L substrate
Experimental: as §1, §2, §3

[3] = tested on: CYP2D6; assay: CYP selective diagnostic inhibition studies in HLM, quinidine; type: in vitro ADME, human; settings: quinidine 10 µmol/L
Experimental: (§4) Reactions were carried out in triplicate in 96 well plates. Each reaction was measured at 2 time points, that is at 0 and 30 minutes. […] Furafylline, KTZ, ticlopidine, and quinidine were used as diagnostic inhibitors for CYP 1A2, 3A4/5, 2C19 and 2D6, respectively. The reactions were initiated by addition of NADPH after a pre‐incubation of 5 minutes at 37°C. All reactions were terminated by the addition of 150 µL ice‐cold ACN. Internal standard (0.2 µmol/L DPZ) was added to ACN prior to termination of the assay. This was followed by centrifugation at 4500 g for 20 minutes. An aliquot (50 µL) supernatant was collected and 5 µL was injected and analyzed by liquid chromatography/tandem mass spectrometry (LC/MS/MS). The percent effect of each inhibitor was the estimated contribution of the inhibited CYP calculated using the relationship below: %contribution=amount remaining with inhibitor‐amount remaining without inhibitor/amount remaining without inhibitor×100.

[4] = Simcyp prediction of total hepatic clearance; design: species or system human
Experimental: The clearance of the incubation mixture was expressed as μL/min/pmol for rCYP.
as §3

[5] = tested on: CYP3A4/5; assay: CYP selective diagnostic inhibition studies in HLM, ketoconazole; type: in vitro ADME, human; settings: ketoconazole 10 µmol/L
Experimental: as §4

[6] = biological target: CYP2C19 (Homo sapiens, UniProt P33261); assay: Enzyme kinetics of hydroxylated metabolites formation; type: in vitro ADME; design: purchased CYPEX CYP008; host or cells: Escherichia coli; settings: CYP2C19, formation of cis‐4‐OH‐PZQ
Experimental: The reactions were carried out in duplicate at each time point. Incubation conditions used for the determination of K M and V max were optimized for linearity with respect to time and protein concentrations. […] Metabolites were analyzed by LC‐MS/MS as described below. The K M and V max values of each marker substrate were determined using nonlinear least squares regression analysis in GraFit software (version 3.0, Erithacus Software Limited) and SigmaPlot Enzyme Kinetics Module for Windows 7.0 (SPSS, Inc).
as §3

[7] = PZQ-ketoconazole DDI pharmacokinetic study in healthy volunteers; type: in vivo, human; settings: for AUC(0-inf) / AUC / CL/F / k el / half-life / Tmax / Vd/F: male, human, plasma
Experimental: Plasma samples were obtained from the AiBST biobank. […] Each participant served as their own control. Each participant provided written informed consent to take part in the study and the study was carried out according to Helsinki Declaration of 1975, as revised in 2008. The study was approved by the Medical Research Council of Zimbabwe (MRCZ) and the Medicines Controls Authority of Zimbabwe (MCAZ). […] The samples were vortexed for 30 seconds and left under gentle agitation for 25 minutes. […] From the supernatant, 20 μL was injected onto the chiral HPLC system for analysis. […] Detection was done using a UV diode array detector at 210 nm. […] The data were gathered and processed using Agilent OpenLab CDS for Chemstation software version 1.9. Linear calibration curves were plotted as concentration vs peak area ratio for analyte to IS with no weighting. […] The pharmacokinetic (PK) analysis was performed using the WinNonlin program, version 8.2 (Pharsight Corp). […] A non-compartmental approach was used for curve plotting and parameter calculation. The area under the curve (AUC) from time 0 to the last sampling time point (AUCt) was computed using the log-linear trapezoidal rule. The linear trapezoidal rule was used for the ascending part of the PK curve, while the log trapezoidal rule was used for the descending part of the graph. The AUC extrapolated to infinite time was calculated as AUC∞ = AUCt + Ct/K el where Ct is the concentration of the last sample taken and K el is the terminal elimination rate constant. The terminal elimination rate constant K el was determined by least squares regression analysis in the terminal phase of the semi log concentration-time curve. […] Statistical analysis was performed using the GraFit software (version 3.0, Erithacus Software Limited). […] Analysis of variance (ANOVA) was performed on the AUC and C max after transformation of the data to their natural logarithmic (ln) values.

[8] = PZQ + ketoconazole vs PZQ alone
[9] = single oral 20 mg/kg PZQ alone, n = 9, listed as R‐Praziquantel, 20 mg/kg

CYP2C19, sequence (P33261 whole entry): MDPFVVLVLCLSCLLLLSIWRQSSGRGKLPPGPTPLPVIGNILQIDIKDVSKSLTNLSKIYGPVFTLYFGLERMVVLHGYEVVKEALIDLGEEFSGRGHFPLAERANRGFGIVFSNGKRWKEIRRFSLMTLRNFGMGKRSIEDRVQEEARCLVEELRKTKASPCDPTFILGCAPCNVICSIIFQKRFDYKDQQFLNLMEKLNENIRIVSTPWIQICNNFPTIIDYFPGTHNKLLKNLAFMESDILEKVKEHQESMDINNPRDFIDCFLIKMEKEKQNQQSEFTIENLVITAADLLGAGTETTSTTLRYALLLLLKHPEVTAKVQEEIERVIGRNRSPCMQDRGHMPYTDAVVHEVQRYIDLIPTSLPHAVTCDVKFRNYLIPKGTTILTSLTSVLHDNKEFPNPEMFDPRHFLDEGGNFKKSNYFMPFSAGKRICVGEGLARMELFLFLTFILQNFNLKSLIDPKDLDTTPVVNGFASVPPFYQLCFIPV

Predicted CLuH,int ([1]; HLM): 172.0 mL/min/kg
Predicted CLH ([1]; HLM, well‐stirred model): 13.06 mL/min/kg
Clearance class, HLM‐mediated [1]: high
half-life at 1 µmol/L [2]: 0.191 h
Contribution of CYP2D6 [3]: 51%
Predicted total CLH (Simcyp) ([4]; metabolite formation assay): 9.777 mL/min/kg
Predicted total CLH (Simcyp) ([4]; substrate depletion assay): 6.923 mL/min/kg
Contribution of CYP3A4/5 [5]: 33%
CLuH,int [6]: 4.60 mL/min/kg and 4.600 mL/min/kg
Clearance/F, treatment mean (SD) ([7]; 20 mg/kg PZQ plus 200 mg ketoconazole, n = 9): 1146 (992.1) L/h
Decrease of mean C max with KTZ ([7]; PZQ + KTZ vs PZQ alone): 11.85%
AUCinf, difference observed % [7, 8]: 9% and 9.26%
AUCt0‐tlast, difference observed % [7, 8]: −14.68%
C max, difference observed % [7, 8]: −11.85%
Clearance/F, difference observed % [7, 8]: 26.99%
Elimination rate constant, difference observed % [7, 8]: −4.350%
Half life, difference observed % [7, 8]: 79.64%
T max, difference observed % [7, 8]: −46.33%
V d/F, difference observed % [7, 8]: 74.87%
AUCinf, difference observed % ([7]; PZQ + ketoconazole vs PZQ alone, listed as R‐Praziquantel): 9.290%
AUC(0-inf) ([7]; oral, 20 mg/kg, 20 mg/kg PZQ plus 200 mg ketoconazole, n = 9, read-out: AUCinf, treatment geo mean): 1290 ng·h/mL
AUC(0-inf) ([7]; oral, 20 mg/kg, 20 mg/kg PZQ plus 200 mg ketoconazole, n = 9, read-out: AUCinf, treatment mean (SD)): 1470 ng·h/mL
AUC ([7]; oral, 20 mg/kg, 20 mg/kg PZQ plus 200 mg ketoconazole, n = 9, read-out: AUCt0‐tlast, treatment geo mean): 945 ng·h/mL
CL/F ([7]; oral, 20 mg/kg, 20 mg/kg PZQ plus 200 mg ketoconazole, n = 9, read-out: Clearance/F, treatment geo mean (converted)): 15300 mL/min
CL/F ([7]; oral, 20 mg/kg, 20 mg/kg PZQ plus 200 mg ketoconazole, n = 9, read-out: Clearance/F, treatment mean (SD) (converted)): 19100 mL/min
k el ([7]; oral, 20 mg/kg, 20 mg/kg PZQ plus 200 mg ketoconazole, n = 9, read-out: Elimination rate constant, treatment geo mean (converted)): 4.44e-05 s⁻¹
k el ([7]; oral, 20 mg/kg, 20 mg/kg PZQ plus 200 mg ketoconazole, n = 9, read-out: Elimination rate constant, treatment mean (SD) (converted)): 6.11e-05 s⁻¹
half-life ([7]; oral, 20 mg/kg, 20 mg/kg PZQ plus 200 mg ketoconazole, n = 9, read-out: Half life, treatment geo mean (converted)): 4.14 h
half-life ([7]; oral, 20 mg/kg, 20 mg/kg PZQ plus 200 mg ketoconazole, n = 9, read-out: Half life, treatment mean (SD) (converted)): 6 h
Tmax ([7]; oral, 20 mg/kg, 20 mg/kg PZQ plus 200 mg ketoconazole, n = 9, read-out: T max, treatment geo mean): 1.53 h
Tmax ([7]; oral, 20 mg/kg, 20 mg/kg PZQ plus 200 mg ketoconazole, n = 9, read-out: T max, treatment mean (SD)): 1.61 h
Vd/F ([7]; oral, 20 mg/kg, 20 mg/kg PZQ plus 200 mg ketoconazole, n = 9, read-out: V d/F, treatment geo mean): 5480 L
Vd/F ([7]; oral, 20 mg/kg, 20 mg/kg PZQ plus 200 mg ketoconazole, n = 9, read-out: V d/F, treatment mean (SD)): 7880 L
AUC ([7]; oral, 20 mg/kg, AUC, PZQ alone): 1350 ± 1470 ng·h/mL
AUC ([7]; oral, 20 mg/kg, read-out: AUC from the in vivo pharmacokinetic study): 2400 ng·h/mL
AUC ([7]; oral, AUC, PZQ + KTZ): 1470 ± 767 ng·h/mL
AUC(0-inf) ([7]; po, 20 mg/kg, single oral 20 mg/kg PZQ alone, n = 9, read-out: AUCinf, reference geo mean): 1300 ng·h/mL
AUC(0-inf) ([7]; po, 20 mg/kg, single oral 20 mg/kg PZQ alone, n = 9, read-out: AUCinf, reference mean (SD)): 1340 ng·h/mL
AUC ([7]; po, 20 mg/kg, single oral 20 mg/kg PZQ alone, n = 9, read-out: AUCt0‐tlast, reference geo mean): 1120 ng·h/mL
AUC ([7]; po, 20 mg/kg, single oral 20 mg/kg PZQ alone, n = 9, read-out: AUCt0‐tlast, reference mean (SD)): 1240 ng·h/mL
CL/F ([7]; po, 20 mg/kg, single oral 20 mg/kg PZQ alone, n = 9, read-out: Clearance/F, reference geo mean (converted)): 14600 mL/min
CL/F ([7]; po, 20 mg/kg, single oral 20 mg/kg PZQ alone, n = 9, read-out: Clearance/F, reference mean (SD) (converted)): 15000 mL/min
k el ([7]; po, 20 mg/kg, single oral 20 mg/kg PZQ alone, n = 9, read-out: Elimination rate constant, reference geo mean (converted)): 6.11e-05 s⁻¹
k el ([7]; po, 20 mg/kg, single oral 20 mg/kg PZQ alone, n = 9, read-out: Elimination rate constant, reference mean (SD) (converted)): 6.39e-05 s⁻¹
half-life ([7]; po, 20 mg/kg, single oral 20 mg/kg PZQ alone, n = 9, read-out: Half life, reference geo mean (converted)): 3.21 h
half-life ([7]; po, 20 mg/kg, single oral 20 mg/kg PZQ alone, n = 9, read-out: Half life, reference mean (SD) (converted)): 3.34 h
Tmax ([7]; po, 20 mg/kg, single oral 20 mg/kg PZQ alone, n = 9, read-out: T max, reference geo mean): 2.59 h
Tmax ([7]; po, 20 mg/kg, single oral 20 mg/kg PZQ alone, n = 9, read-out: T max, reference mean (SD)): 3 h
Vd/F ([7]; po, 20 mg/kg, single oral 20 mg/kg PZQ alone, n = 9, read-out: V d/F, reference geo mean): 4050 L
Vd/F ([7]; po, 20 mg/kg, single oral 20 mg/kg PZQ alone, n = 9, read-out: V d/F, reference mean (SD)): 4510 L
Clearance/F, reference mean (SD) ([7]; single oral 20 mg/kg PZQ alone, n = 9, 20 mg/kg): 902.09 ± 264 L/h
C max, reference mean (SD) [7, 9]: 313.1 (131.1) ng/mL
Clearance/F, reference mean (SD) [7, 9]: 902.1 (264.9) L/h
Structure (SMILES): O=C(C1CCCCC1)N1CC(=O)N2CCc3ccccc3[C@@H]2C1 [R‐PZQ, R‐Praziquantel]

From PMC7376644 (Pharmacology Research & Perspectives, 2020)
